Source: article PMC7079210 (Chembiochem, 2019)

Biological target: PhdB (phenylacetate decarboxylase), sewage culture version (uncultured Acidobacteriota bacterium, UniProt A0A2P1UAH0)
Format: biochemical

Chain of PhdB (phenylacetate decarboxylase), sewage culture version (A0A2P1UAH0 1-839): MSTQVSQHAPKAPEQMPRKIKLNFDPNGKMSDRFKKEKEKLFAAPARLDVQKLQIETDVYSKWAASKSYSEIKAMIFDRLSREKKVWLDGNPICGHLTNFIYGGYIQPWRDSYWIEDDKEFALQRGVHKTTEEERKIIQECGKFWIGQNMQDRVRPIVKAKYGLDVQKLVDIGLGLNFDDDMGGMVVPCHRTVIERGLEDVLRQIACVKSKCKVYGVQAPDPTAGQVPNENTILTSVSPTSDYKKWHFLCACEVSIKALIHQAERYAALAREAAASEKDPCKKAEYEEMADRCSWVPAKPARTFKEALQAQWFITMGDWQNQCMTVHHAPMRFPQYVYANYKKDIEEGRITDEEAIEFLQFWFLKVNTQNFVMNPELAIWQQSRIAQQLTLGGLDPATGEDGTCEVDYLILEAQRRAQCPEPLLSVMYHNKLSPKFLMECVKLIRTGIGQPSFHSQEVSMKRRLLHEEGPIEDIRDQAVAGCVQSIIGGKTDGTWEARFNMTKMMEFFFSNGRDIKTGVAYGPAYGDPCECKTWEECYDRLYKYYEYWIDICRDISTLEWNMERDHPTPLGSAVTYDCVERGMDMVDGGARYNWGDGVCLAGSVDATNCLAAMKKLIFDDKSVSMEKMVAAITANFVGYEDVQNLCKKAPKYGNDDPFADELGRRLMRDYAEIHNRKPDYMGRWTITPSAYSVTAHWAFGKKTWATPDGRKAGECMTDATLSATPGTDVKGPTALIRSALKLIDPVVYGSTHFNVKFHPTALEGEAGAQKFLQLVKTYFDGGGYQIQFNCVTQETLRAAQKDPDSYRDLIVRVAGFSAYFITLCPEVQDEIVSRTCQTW

Ki: 370 ± 30 µM
Structure (SMILES): O=C(O)C(F)(F)c1ccccc1 [α,α‐difluorophenylacetate]
